Experimental findings from patent US20090082329A1 (AVENTIS PHARMA S.A., priority 2006, published 2009) are described below.

Where two headings read alike, the source gives them in different places.

The term IC50 denotes the concentration at which inhibition is half-maximal.

Assay [1] addresses T1, human cytoplasmic domain of IGF-1R (Homo sapiens, UniProt P08069).
T1 construct: The human cytoplasmic domain of IGF-1R was cloned by fusion with glutathione S-transferase (GST); made in house; host or cells: SF21 insect cells (baculovirus, pFastBac-GST)
The experiment in a line: Kinase IGF-1R test: inhibition of autophosphorylation of the enzyme (HTRF). The settings on record: ATP 120 μM. It is filed as biochemical. As for the experimental part:
A) Experimental Protocol for the Kinase IGF-1R Test:
The inhibitory activity of the compounds on IGF1R is determined by measuring the inhibition of autophosphorylation of the enzyme using a time-resolved fluorescence test (HTRF). The human cytoplasmic domain of IGF-1R was cloned by fusion with glutathione S-transferase (GST) in the baculovirus expression vector pFastBac-GST. The protein is expressed in the SF21 cells and purified to about 80% homogeneity. For the enzymatic test, the test compound at 10 mM dissolved in DMSO is diluted in ⅓ steps in a 50 mM Hepes, pH 7.5, 5 mM MnCl2, 50 mM NaCl, 3% Glycerol, 0.025% Tween 20 buffer. To measure the inhibition, the successive dilutions of the compound are preincubated for 30 minutes and 90 minutes in the presence of 5 nM of enzyme, the final DMSO concentration not exceeding 1%. The enzymatic reaction is initiated to have a final ATP concentration of 120 μM, and is stopped after 5 minutes by addition of 100 mM Hepes, pH 7.0 buffer containing 0.4 M of potassium fluoride, 133 mM EDTA, 0.1% BSA, the XL665-labelled antibody anti-GST and the anti-phosphotyrosine antibody conjugated to europium cryptate Eu—K (Cis-Bio Int.). The characteristics of the two fluorophores, XL-665 and Eu—K, are available in G. Mathis et al., Anticancer Research, 1997, 17, pages 3011-3014. The energy transfer between the excited europium cryptate to the acceptor XL665 is proportional to the degree of autophosphorylation of IGF-1R. The specific long-lasting signal of XL-665 is measured in a GENios Pro TECAN plate counter. The inhibition of autophosphorylation of IGF-1R at time 30 minutes and 90 minutes with the test compounds of the invention is calculated relative to a 1% in DMSO control, whose activity is measured in the absence of compound. The curve representing the percentage of inhibition as a function of the log of the concentration is established to determine the concentration corresponding to 50% inhibition (IC50),
In general terms: In TR-FRET formats the signal depends on donor and acceptor labels being close together.

Assay [2] deals with MEF-IGF1R cells. The experiment in a line: Proliferation/viability of MEF-IGF1R (Thymidine [14C] incorporation). The assay is classed as cell-based. The settings on record: rhIGF1 100 ng/mL, incubation 72 hours, read-out: Test C IC50. As for the experimental part: C) Measurement of the Proliferation/Viability of MEF-IGF1R
Cell culture: the MEF-IGF1R cells (stable clone of cells transfected with the receptor hIGF-1R) are cultured at 37° C. under 5% CO2 in EMEM medium containing 10% FCS.
Test procedure: the cells are seeded at 5000 cells per well in 96-well Cytostar plates (Amersham) with 0.2 mL of EMEM culture medium at 37° C. for 18 hours. The cells are then washed twice with EMEM medium and left to culture without serum for 24 hours. The compounds are then added at various concentrations in the presence of rhIGF1 (100 ng/mL) and 0.1 μCi of Thymidine [^14C] (specific activity ˜50 mCi/mmol) to give 0.2 mL of volume per well. After incubation for 72 hours in the presence of the compound, at 37° C. under 5% CO2, the incorporation of Thymidine [^14C] is measured by counting the radioactivity on a Microbeta trilux counter (Perkin-Elmer). The IC50 is determined from 10 increasing concentrations of the compound.
(§1) (i) The tests are performed in duplicate and the mean of the two tests is calculated.
(§2) (ii) The value of the signal of the maximum response is calculated from the positive control: cells stimulated with IGF1 without compound.
(§3) (iii) Value of the signal of the minimum response is calculated from the negative control: cells not stimulated with IGF1 without compound.
(§4) (iv) By using these values as maximum (100%) and minimum (0%), respectively, the data were normalized so as to give a percentage of the maximum response.
(§5) (v) A curve of dose response is plotted and the IC50 (the concentration of which the compound induces a 50% decrease in the signal) of the compound is calculated by non-linear regression analysis.

Assay [3] concerns the target IGF-1R in MCF7 cells (Homo sapiens, UniProt P08069). Nature of the assay: Autophosphorylation of IGF-1R in MCF7 cells after stimulation with IGF-1 (ELISA). It is filed as cell-based. More on the design: endogenous in cells; host or cells: MCF-7 cells. The settings on record: MCF-7 cells, compound added one hour before stimulation with IGF1; read-out: Test B IC50. As for the experimental part: B) Measurement of the Autophosphorylation of IGF-1R in MCF7 Cells after Stimulation with IGF-1
Cell Culturing and Execution of the Test:
The autophosphorylation of IGF1R in the IGF1-induced cells is evaluated by means of an ELISA technique (Enzyme Linked ImmunoSorbent Assay). The MCF-7 are seeded at 60 000 cells per well in 6-well plates and incubated at 37° C., 5% CO2 in medium containing 10% serum. After one night in 10% serum, the cells are deprived of serum for 24 hours. The compounds are added to the medium one hour before stimulation with IGF1. After 10 minutes of stimulation with IGF1, the cells are lysed with a buffer (Hepes 50 mM pH 7.6, Triton X100 1%, orthovanadate 2 mM, protease inhibitor cocktail). The cell lysates are incubated on a 96-well plate precoated with an anti-IGF1R antibody, followed by incubation with an anti-phosphotyrosine antibody coupled to the enzyme peroxidase. The level of peroxidase activity (measured by OD with a luminescent substrate) reflects the phosphorylation status of the receptor.
as §1, §2, §3, §4, §5
For orientation: In an ELISA, binding on a coated surface is turned into a signal by an enzyme label.

[4] abbreviates: preincubation 30 minutes with 5 nM enzyme, read-out: Test A 30′ IC50.
Where [5] appears, read: preincubation 90 minutes with 5 nM enzyme, read-out: Test A 90′ IC50.

T1 sequence (P08069 960-1367 limits assumed): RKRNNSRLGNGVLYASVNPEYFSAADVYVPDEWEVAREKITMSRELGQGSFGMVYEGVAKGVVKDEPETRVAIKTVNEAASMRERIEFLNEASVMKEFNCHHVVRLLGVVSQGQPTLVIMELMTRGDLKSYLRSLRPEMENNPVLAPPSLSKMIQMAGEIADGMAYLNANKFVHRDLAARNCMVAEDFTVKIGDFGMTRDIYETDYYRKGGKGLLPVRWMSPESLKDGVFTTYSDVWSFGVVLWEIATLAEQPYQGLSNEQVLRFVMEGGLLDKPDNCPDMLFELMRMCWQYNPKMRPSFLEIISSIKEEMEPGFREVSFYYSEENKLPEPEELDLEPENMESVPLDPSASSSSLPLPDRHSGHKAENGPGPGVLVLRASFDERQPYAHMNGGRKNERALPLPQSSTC
Sequence of IGF-1R in MCF7 cells (P08069 31-1367): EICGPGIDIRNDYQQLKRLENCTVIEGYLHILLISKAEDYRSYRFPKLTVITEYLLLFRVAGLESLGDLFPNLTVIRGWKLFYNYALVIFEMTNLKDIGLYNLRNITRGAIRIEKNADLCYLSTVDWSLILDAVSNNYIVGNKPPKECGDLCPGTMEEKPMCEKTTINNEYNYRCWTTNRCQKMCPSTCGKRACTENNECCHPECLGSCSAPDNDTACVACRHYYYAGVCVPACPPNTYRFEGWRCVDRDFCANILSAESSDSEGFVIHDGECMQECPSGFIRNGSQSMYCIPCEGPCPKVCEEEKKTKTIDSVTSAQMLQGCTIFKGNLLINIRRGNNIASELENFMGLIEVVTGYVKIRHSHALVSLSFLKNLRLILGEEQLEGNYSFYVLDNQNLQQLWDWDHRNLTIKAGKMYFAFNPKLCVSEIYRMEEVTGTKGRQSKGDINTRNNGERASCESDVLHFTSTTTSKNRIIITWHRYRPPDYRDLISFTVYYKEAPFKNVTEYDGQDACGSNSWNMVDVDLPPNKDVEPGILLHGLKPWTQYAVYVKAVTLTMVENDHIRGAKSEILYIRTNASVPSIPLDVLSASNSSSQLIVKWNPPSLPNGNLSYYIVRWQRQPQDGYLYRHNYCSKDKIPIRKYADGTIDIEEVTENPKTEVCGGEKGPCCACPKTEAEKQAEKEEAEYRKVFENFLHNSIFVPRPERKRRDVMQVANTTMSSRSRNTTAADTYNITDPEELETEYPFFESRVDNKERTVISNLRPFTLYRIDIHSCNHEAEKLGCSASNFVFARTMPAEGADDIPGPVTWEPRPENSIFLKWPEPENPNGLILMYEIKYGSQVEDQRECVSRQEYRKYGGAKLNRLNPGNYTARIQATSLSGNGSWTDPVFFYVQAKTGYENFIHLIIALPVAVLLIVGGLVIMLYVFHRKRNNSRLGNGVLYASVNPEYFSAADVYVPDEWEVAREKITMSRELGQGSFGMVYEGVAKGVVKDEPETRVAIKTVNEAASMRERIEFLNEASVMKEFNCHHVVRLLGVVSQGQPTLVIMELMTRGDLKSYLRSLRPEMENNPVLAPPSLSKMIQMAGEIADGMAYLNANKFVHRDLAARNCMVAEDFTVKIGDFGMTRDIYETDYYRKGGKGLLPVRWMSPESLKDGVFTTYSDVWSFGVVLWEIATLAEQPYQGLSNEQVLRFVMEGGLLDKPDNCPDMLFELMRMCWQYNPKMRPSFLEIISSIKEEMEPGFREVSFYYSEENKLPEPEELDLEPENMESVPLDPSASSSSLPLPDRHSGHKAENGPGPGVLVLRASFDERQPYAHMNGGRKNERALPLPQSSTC

With `CC1(C)C(=O)N(c2ccc(SC(F)(F)F)cc2)C(=O)N1Cc1ccnc(Nc2cc(F)ccc2F)c1` [Example 5, 1-({2-[(2,5-difluorophenyl)amino]pyridin-4-yl}-methyl)-5,5-dimethyl-3-{4-[(trifluoromethyl)thio]phenyl}imidazolidine-2,4-dione], the IC50 in assay [1] (setting [4]) is 10 to 100 nM; in assay [2], 10 to 100 nM; in assay [3] it was more than 100 nM.
For the compound `CC1(C)C(=O)N(c2ccc(SC(F)(F)F)cc2)C(=O)N1Cc1ccnc(NC(=O)c2cc(Cl)cc(Cl)c2)c1` [Example 6, 3,5-dichloro-N-{4-[(5,5-dimethyl-2,4-dioxo-3-{4-[(trifluoromethyl)thio]phenyl}imidazolidin-1-yl)methyl]pyridin-2-yl}benzamide], the 50% inhibitory concentration (IC50) is more than 100 nM in assay [1] (setting [4]), less than 10 nM in assay [2] and more than 100 nM in assay [3].
For the compound `Cc1ccc(F)c(C(=O)Nc2cc(CN3C(=O)N(c4ccc(SC(F)(F)F)cc4)C(=O)C3(C)C)ccn2)c1Cl` [Example 7, 2-chloro-N-{4-[(5,5-dimethyl-2,4-dioxo-3-{4-[(tri-fluoromethyl)thio]phenyl}imidazolidin-1-yl)methyl]pyridin-2-yl}-6-fluoro-3-methylbenzamide], the concentration for half-maximal inhibition (IC50) is more than 100 nM in assay [1] (setting [4]), 10 to 100 nM in assay [1] (setting [5]), 10 to 100 nM in assay [2] and more than 100 nM in assay [3].
For the compound `CN(C)C(=O)c1cccc(Nc2cc(CN3C(=O)N(c4ccc(SC(F)(F)F)cc4)C(=O)C3(C)C)ccn2)c1` [Example 8, 3-({4-[(5,5-dimethyl-2,4-dioxo-3-{4-[(trifluoro-methyl)thio]phenyl}imidazolidin-1-yl)methyl]pyridin-2-yl}amino)-N,N-dimethylbenzamide], the IC50 is 10 to 100 nM in assay [1] (setting [4]), less than 10 nM in assay [1] (setting [5]), 10 to 100 nM in assay [2] and less than 10 nM in assay [3].
Regarding `C[C@H](CO)Nc1nccc(CN2C(=O)N(c3ccc(S(=O)(=O)C(F)(F)F)cc3)C(=O)C2(C)C)n1` [Example 9, 1-[(2-{[(1R)-2-hydroxy-1-methylethyl]amino}-pyrimidin-4-yl)methyl]-5,5-dimethyl-3-{4-[(trifluoromethyl)-sulfonyl]phenyl}imidazolidine-2,4-dione], the IC50 is more than 100 nM in assay [1] (setting [4]), 10 to 100 nM in assay [1] (setting [5]), 10 to 100 nM in assay [2] and more than 100 nM in assay [3].
With `CC1(C)C(=O)N(c2ccc(SC(F)(F)F)cc2)C(=O)N1Cc1ccnc(Nc2cccnc2)n1` [Example 11, 5,5-dimethyl-1-{[2-(pyridin-3-ylamino)pyrimidin-4-yl]methyl}-3-{4-[(trifluoromethyl)thio]phenyl}imidazolidine-2,4-dione], the half-inhibitory concentration (IC50) in assay [1] (setting [4]) is 10 to 100 nM; in assay [1] (setting [5]), less than 10 nM; in assay [2] it was less than 10 nM; in assay [3] it was less than 10 nM.
Turning to `CC1(C)C(=O)N(c2ccc(SC(F)(F)F)cc2)C(=O)N1Cc1ccnc(Nc2cncnc2)c1` [Example 14, 5,5-dimethyl-1-{[2-(pyrimidin-5-ylamino)pyridin-4-yl]methyl}-3-{4-[(trifluoromethyl)thio]phenyl}imidazolidine-2,4-dione], the IC50 in assay [1] (setting [4]), in assay [1] (setting [5]), in assay [2] and in assay [3] was more than 100 nM each time.
As for `CC1(C)C(=O)N(c2ccc(SC(F)(F)F)cc2)C(=O)N1Cc1ccnc(Nc2cncnc2)n1` [Example 15, 5,5-dimethyl-1-{[2-(pyrimidin-5-ylamino)pyrimidin-4-yl]methyl}-3-{4-[(trifluoromethyl)thio]phenyl}imidazolidine-2,4-dione], the half-maximal inhibitory concentration (IC50) is 10 to 100 nM in assay [1] (setting [4]), 10 to 100 nM in assay [1] (setting [5]), more than 100 nM in assay [2] and 10 to 100 nM in assay [3].
Take `CC1(C)C(=O)N(c2ccc(S(=O)(=O)C(F)(F)F)cc2)C(=O)N1Cc1ccnc(Nc2cncnc2)n1` [Example 16, 5,5-dimethyl-1-{[2-(pyrimidin-5-ylamino)pyrimidin-4-yl]methyl}-3-{4-[(trifluoromethyl)sulfonyl]phenyl}imidazolidine-2,4-dione]: the IC50 in assay [1] (setting [4]) is 10 to 100 nM; in assay [1] (setting [5]) it was 10 to 100 nM; in assay [2] it was more than 100 nM; in assay [3] it was 10 to 100 nM.
